According to patent US12156880B2, “Heterocyclic RIP1 kinase inhibitors” (Rigel Pharmaceuticals, Inc., priority 2021, dated 2024):

Tests used:
U937 cells = experiment: U937 cell necroptosis assay (TNFa + zVAD, CellTiter-Glo recovery); type: cell-based; conditions: Homo sapiens, U-937, 18 h, TNFa 2 ng/mL + zVAD-fmk, read-out: U937 Zvad TNF CTG Recovery, U937, TNFa + zVAD (IC50)
Description: (§1) In this example, U937 and L929 cells were exposed to compounds of the present disclosure and a cell necroptosis assay was conducted to evaluate the compounds' activity against human RIP1 and murine RIP1.
(§2) U937 and L929 cells were obtained from the American Type Culture Collection (Manassas, VA, USA). Both cells were maintained in logarithmic growth phase in complete RPMI 1640 media (Sigma, ST Louis, MO, USA) supplemented with 10% fetal bovine serum (Sigma, ST Louis, MO, USA) at 37° C. with 5% CO2. For necroptosis assay, L929 cells were plated for 18 h in 100 μL/well medium at 10K cells/well in Costar 96-well black clear-bottom plates (Fisher Scientific, Hampton, NH, USA); U937 cells were plated on the day of the assay in 50 μL/well medium containing 60 uM zVAD-fmk (Lonza, Basel, Switzerland) at 50K cells/well. Medium from L929 cells were removed from the 96-well plates and replaced with 50 μL/well new medium containing 40 uM zVAD-fmk. Each compound of the present disclosure evaluated in this example was serially diluted in DMSO from 2.5 mM in 4-fold dilutions, and then diluted 1:125 in complete medium. 50 μL/well 2× of the compound was then added to the cells in the plates. The cells were pre-incubated with the compound for 1 hour at 37° C. with 5% CO2 and before addition of 10 μL/well 11×TNFa (Peprotech, Rocky Hill, NJ, USA) to give a final concentration of 2 ng/mL for TNFa. The relative amount of necroptosis cells was determined by luminescent using a Wallac Victor2 Luminometer (PerkinElmer, Waltham, MA, USA) and a CellTiter-Glo® Luminescent Cell Viability Reagent Assay (Promega, Madison, WI, USA) added per manufacturer instructions after 18 hours of TNFa stimulation at 37° C. with 5% CO2. This example establishes that embodiments of the compounds described herein have unexpectedly potent activity against human RIP1 and murine RIP1, which allows their assessment in in vivo mouse models of disease.

L929 cells = experiment: L929 cell necroptosis assay (TNFa + zVAD, CellTiter-Glo recovery); type: cell-based, murine; parameters: L929-CTG-recovery, L929, TNFa + zVAD (IC50): unit not given here; conditions: TNFa 2 ng/mL + zVAD-fmk; for IC50: Mus musculus, L929, 18 h, read-out: L929-CTG-recovery, L929, TNFa + zVAD (IC50)
Description: as §1, §2

RIPK1 = molecular target: T1, RIPK1 (Homo sapiens, UniProt Q13546); experiment: RIPK1 ADP-Glo biochemical kinase assay; conditions: read-out: RIPK1 ADP-Glo Kinase (IC50)
T1 sequence (Q13546 1-671): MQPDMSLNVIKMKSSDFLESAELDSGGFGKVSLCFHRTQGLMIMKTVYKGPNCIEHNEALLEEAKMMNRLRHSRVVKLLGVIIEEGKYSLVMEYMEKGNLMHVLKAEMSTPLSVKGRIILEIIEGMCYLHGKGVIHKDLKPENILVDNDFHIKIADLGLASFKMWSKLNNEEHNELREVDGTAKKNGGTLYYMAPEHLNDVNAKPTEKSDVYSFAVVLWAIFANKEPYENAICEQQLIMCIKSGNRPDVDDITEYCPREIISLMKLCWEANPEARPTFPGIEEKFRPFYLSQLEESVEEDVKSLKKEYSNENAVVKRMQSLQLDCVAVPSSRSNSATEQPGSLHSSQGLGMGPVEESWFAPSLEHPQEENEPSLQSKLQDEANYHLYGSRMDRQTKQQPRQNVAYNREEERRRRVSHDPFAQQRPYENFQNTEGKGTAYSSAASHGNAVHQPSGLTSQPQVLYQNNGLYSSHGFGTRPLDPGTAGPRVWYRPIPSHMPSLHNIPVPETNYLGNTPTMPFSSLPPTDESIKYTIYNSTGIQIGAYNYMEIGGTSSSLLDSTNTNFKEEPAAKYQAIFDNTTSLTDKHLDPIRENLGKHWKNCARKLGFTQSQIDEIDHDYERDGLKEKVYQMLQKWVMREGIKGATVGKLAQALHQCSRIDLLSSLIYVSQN
Description: In this example, compounds of the disclosure were evaluated using a biochemical assay using the ADP-Glo™ technology.
ADP-Glo™ (Promega, Madison, WI, USA) reagents were thawed at ambient temperature. Kinase Detection Reagent was prepared by mixing kinase detection buffer with the lyophilized kinase detection substrate.
A […] stock volume of 5× Reaction Kinase Buffer was made by mixing 1000 μl of 1M MgCl2, 500 μl of 1M Tris-HCL pH7.4, 0.5 mg/ml (25 mg) of BSA, and 3475 μl of distilled H2O. A 3 ml 2× working stock volume of Reaction Kinase Buffer was made containing a final concentration of 100 μM DTT and 4 mM MnCl2.
Components of RIPK1 enzyme (Rigel Pharmaceuticals, South San Francisco, CA, USA) were thawed on ice. Diluted RIPK1 was prepared in 1× Kinase Reaction Buffer (diluted from 2× buffer) to 31 ng/well.
1.0 ul of diluted compound was added to a 384 well plate in duplicate. […] The final reaction volume was 5.0 μl.
The plate was quickly centrifuged and the reaction was incubated at 30° C. for 30 minutes. Adding 5 μl of ADP-Glo™ terminated the reaction. The plate was quickly centrifuged and the reaction was incubated at room temperature for 40 minutes. Kinase Detection Reagent was then added and incubated at room temperature for 30 minutes. The relative light unit (RLU) of kinase reaction was determined by luminescent (Luminescence 0.1 s) using a Wallac Victor2 Luminometer (PerkinElmer, Waltham, MA, USA).

Row | Structure (SMILES) | IC50 (U937 cells) [nM] | IC50 (L929 cells) [nM] | IC50 (RIPK1) [nM] | L929-CTG-recovery, L929, TNFa + zVAD (IC50) (L929 cells; 18 hours)
1 | CN1C(=O)[C@@H](NC(=O)n2cc(Cc3cccc(C(F)(F)F)n3)cn2)COc2ccc(C#CC(C)(C)O)cc21 [I-9, (S)—N-(7-(3-Hydroxy-3-methylbut-1-yn-1-yl)-5-methyl-4-oxo-2,3,4,5-tetrahydrobenzo[b][1,4]oxazepin-3-yl)-4-((6-(trifluoromethyl)pyridin-2-yl)methyl)-1H-pyrazole-1-carboxamide] | 163 | 2690 | 64.3 | 
2 | Cc1cccc(Cc2ccnc(C(=O)N[C@H]3COc4ccc(C#CC(C)(C)O)cc4N(C)C3=O)c2)n1 [I-11, (S)—N-(7-(3-hydroxy-3-methylbut-1-yn-1-yl)-5-methyl-4-oxo-2,3,4,5-tetrahydrobenzo[b][1,4]oxazepin-3-yl)-4-((6-methylpyridin-2-yl)methyl)picolinamide] | 126 | 7430 | 120 | 
3 | Cc1cccc(Cc2ccnc(C(=O)N[C@H]3COc4ccc(C#CC5(O)COC5)cc4N(C)C3=O)c2)n1 [I-12, (S)—N-(7-((3-hydroxyoxetan-3-yl)ethynyl)-5-methyl-4-oxo-2,3,4,5-tetrahydrobenzo[b][1,4]oxazepin-3-yl)-4-((6-methylpyridin-2-yl)methyl)picolinamide] | 73.4 | 3470 | 25.2 | 
4 | CN1C(=O)[C@@H](NC(=O)c2cc(Cc3cccc(F)n3)ccn2)COc2ccc(C#CC(C)(C)O)cc21 [I-13, (S)-4-((6-fluoropyridin-2-yl)methyl)-N-(7-(3-hydroxy-3-methylbut-1-yn-1-yl)-5-methyl-4-oxo-2,3,4,5-tetrahydrobenzo[b][1,4]oxazepin-3-yl)picolinamide] | 42 | 1310 | 21.2 | 
5 | CN1C(=O)[C@@H](NC(=O)n2cc(Cc3cccnc3)cn2)COc2ccc(C#CC(C)(C)O)cc21 [I-14, (S)—N-(7-(3-Hydroxy-3-methylbut-1-yn-1-yl)-5-methyl-4-oxo-2,3,4,5-tetrahydrobenzo[b][1,4]oxazepin-3-yl)-4-(pyridin-3-ylmethyl)-1H-pyrazole-1-carboxamide] | 14.3 | 1170 | 17.6 | 
6 | Cc1ccc(Cc2cnn(C(=O)N[C@H]3COc4ccc(C#CC(C)(C)O)cc4N(C)C3=O)c2)cn1 [I-15, (S)—N-(7-(3-Hydroxy-3-methylbut-1-yn-1-yl)-5-methyl-4-oxo-2,3,4,5-tetrahydrobenzo[b][1,4]oxazepin-3-yl)-4-((6-methylpyridin-3-yl)methyl)-1H-pyrazole-1-carboxamide] | 27.5 | 1680 | 19.4 | 
7 | CN1C(=O)[C@@H](NC(=O)n2cc(Cc3ccc(F)nc3)cn2)COc2ccc(C#CC(C)(C)O)cc21 [I-16, (S)-4-((6-Fluoropyridin-3-yl)methyl)-N-(7-(3-hydroxy-3-methylbut-1-yn-1-yl)-5-methyl-4-oxo-2,3,4,5-tetrahydrobenzo[b][1,4]oxazepin-3-yl)-1H-pyrazole-1-carboxamide] | 17.2 | 2390 | 37.9 | 
8 | Cc1ccc(Cc2cnn(C(=O)N[C@H]3COc4ccc(Br)cc4N(C)C3=O)c2)cn1 [I-23, (S)—N-(7-Bromo-5-methyl-4-oxo-2,3,4,5-tetrahydrobenzo[b][1,4]oxazepin-3-yl)-4-((6-methylpyridin-3-yl)methyl)-1H-pyrazole-1-carboxamide] | 81.8 |  | 25.7 | 5000
9 | CN1C(=O)[C@@H](NC(=O)c2cc(Cc3cccnc3F)ccn2)COc2ccc(C#CC3(O)COC3)cc21 [I-26, (S)-4-((2-fluoropyridin-3-yl)methyl)-N-(7-((3-hydroxyoxetan-3-yl)ethynyl)-5-methyl-4-oxo-2,3,4,5-tetrahydrobenzo[b][1,4]oxazepin-3-yl)picolinamide] | 5.3 | 407 | 35.5 | 
10 | CN1C(=O)[C@@H](NC(=O)c2cc(Cc3cccnc3F)ccn2)COc2ccc(C#CC(C)(C)O)cc21 [I-27, (S)-4-((2-fluoropyridin-3-yl)methyl)-N-(7-(3-hydroxy-3-methylbut-1-yn-1-yl)-5-methyl-4-oxo-2,3,4,5-tetrahydrobenzo[b][1,4]oxazepin-3-yl)picolinamide] | 9.7 | 622 | 19.3 | 
11 | CN1C(=O)[C@@H](NC(=O)n2cc(Cc3ccncc3)cn2)COc2ccc(C#CC(C)(C)O)cc21 [I-29, (S)—N-(7-(3-Hydroxy-3-methylbut-1-yn-1-yl)-5-methyl-4-oxo-2,3,4,5-tetrahydrobenzo[b][1,4]oxazepin-3-yl)-4-(pyridin-4-ylmethyl)-1H-pyrazole-1-carboxamide] | 47.2 | 1720 | 69.4 | 
12 | CN1C(=O)[C@@H](NC(=O)n2cc(Cc3cccc(F)n3)cn2)COc2ccc(C#CC3(O)COC3)cc21 [I-32, (S)-4-((6-Fluoropyridin-2-yl)methyl)-N-(7-((3-hydroxyoxetan-3-yl)ethynyl)-5-methyl-4-oxo-2,3,4,5-tetrahydrobenzo[b][1,4]oxazepin-3-yl)-1H-pyrazole-1-carboxamide] | 16.3 | 682 | 16.2 | 
13 | CN1C(=O)[C@@H](NC(=O)n2cc(Cc3cccc(F)n3)cn2)COc2ccc(C#CC3(O)CCOCC3)cc21 [I-33, (S)-4-((6-Fluoropyridin-2-yl)methyl)-N-(7-((4-hydroxytetrahydro-2H-pyran-4-yl)ethynyl)-5-methyl-4-oxo-2,3,4,5-tetrahydrobenzo[b][1,4]oxazepin-3-yl)-1H-pyrazole-1-carboxamide] | 11.6 | 1130 | 17.1 | 
14 | CN1C(=O)[C@@H](NC(=O)n2cc(Cc3cccc(F)n3)cn2)COc2ccc(C#CC3CCOCC3)cc21 [I-34, (S)-4-((6-Fluoropyridin-2-yl)methyl)-N-(5-methyl-4-oxo-7-((tetrahydro-2H-pyran-4-yl)ethynyl)-2,3,4,5-tetrahydrobenzo[b][1,4]oxazepin-3-yl)-1H-pyrazole-1-carboxamide] | 1.3 | 68.1 | 15.3 | 
15 | CN1C(=O)[C@@H](NC(=O)n2cc(Cc3cccc(F)n3)cn2)CCc2ccc(Br)cc21 [I-35, (S)—N-(8-Bromo-1-methyl-2-oxo-2,3,4,5-tetrahydro-1H-benzo[b]azepin-3-yl)-4-((6-fluoropyridin-2-yl)methyl)-1H-pyrazole-1-carboxamide] | 70 | 6860 | 19.4 | 
